# Test results taken from patent publication US8114880B2, “Piperidine or piperazine substituted tetrahydro-naphthalene-1-carboxylic acid MTP inhibiting compounds” (Janssen Pharmaceutica N.V., priority 2006, dated 2012).
# System: HepG2 cells
# Assay: Quantification of the secretion of ApoB
# Assay type: cell-based
# Details: 24 hours of incubation, pIC50 = -log IC50, listed as 46
# Description: HepG2 cells were cultured in 24-well plates in MEM Rega 3 containing 10% fetal calf serum. At 70% confluency, the medium was changed and the test compound or carrier (DMSO, 0.4% final concentration) was added. After 24 hours of incubation, the medium was transferred to Eppendorf tubes and cleared by centrifugation. A sheep antibody directed against either apoB was added to the supernatant and the mixture was kept at 8° C. for 24 hours. Then, rabbit anti-sheep antibody was added and the immune complex was allowed to precipitate for 24 hours at 8° C. The immunoprecipitate was pelleted by centrifugation for 25 minutes at 1320 g and washed twice with a buffer containing 40 mM Mops, 40 mM NaH2PO4, 100 mM NaF, 0.2 mM DTT, 5 mM EDTA, 5 mM EGTA, 1% Triton-X-100, 0.5% sodium deoxycholate (DOC), 0.1% SDS, 0.2 μM leupeptin and 0.2 μM PMSF. Radioactivity in the pellet was quantified by liquid scintillation counting. The IC50 values are usually converted to pIC50 values (=−log IC50 value) for ease of use.
row,pIC50,SMILES
1,6.649,C=CCOC(=O)[C@]1(c2ccccc2)CC[C@@H](C(=O)N2CCC(NC(=O)c3ccccc3OC)CC2)c2ccccc21 [Co. No. 46]

# Same assay, conditions: Homo sapiens, HepG2, 24 h, 24 hours of incubation, pIC50 = -log IC50
row,SMILES,IC50 [µM]
1,O=C(NC1CCN(CC2CCC(C(=O)NCc3ccccc3)(c3ccccc3)c3ccccc32)CC1)c1ccccc1 (stereo not shown) [Co. No. 1],1.84
2,O=C(NC1CCN(C(=O)C2CCC(C(=O)Nc3ccccc3)(c3ccccc3)c3ccccc32)CC1)c1ccccc1 (stereo not shown) [Co. No. 2],0.0745
3,CCCNC(=O)C1(c2ccccc2)CCC(CN2CCC(NC(=O)c3ccccc3)CC2)c2ccccc21 (stereo not shown) [Co. No. 5],1.91
4,C=CCOC(=O)[C@@]1(c2ccccc2)CC[C@H](C(=O)N2CCC(NC(=O)c3ccccc3OC)CC2)c2ccccc21 [Co. No. 45],0.00263

# The next lines start with the values.
row,IC50 [µM],SMILES
1,0.00228,CCNC(=O)[C@]1(c2ccccc2)CC[C@@H](C(=O)N2CCC(NC(=O)c3ccccc3OC)CC2)c2ccccc21 (racemic) [Co. No. 7]
2,0.00637,CCOC(=O)[C@]1(c2ccccc2)CC[C@@H](C(=O)N2CCC(NC(=O)c3ccccc3OC)CC2)c2ccccc21 (racemic) [Co. No. 26]
3,0.00752,"CCOC(=O)[C@@]1(c2ccccc2)CC[C@H](C(=O)N2CCC(NC(=O)c3ccccc3)CC2)c2ccccc21 (single isomer, unassigned) [Co. No. 32]"
4,0.00313,"CCNC(=O)[C@@]1(c2ccccc2)CC[C@H](C(=O)N2CCC(NC(=O)c3ccccc3OC)CC2)c2ccccc21 (single isomer, unassigned) [Co. No. 39]"
5,0.0358,"COc1ccccc1C(=O)NC1CCN(C(=O)[C@@H]2CC[C@@](C(N)=O)(c3ccccc3)c3ccccc32)CC1 (single isomer, unassigned) [Co. No. 41]"

# Target: MTP (Homo sapiens, UniProt P55157)
# Sequence (P55157 19-894, species assumed): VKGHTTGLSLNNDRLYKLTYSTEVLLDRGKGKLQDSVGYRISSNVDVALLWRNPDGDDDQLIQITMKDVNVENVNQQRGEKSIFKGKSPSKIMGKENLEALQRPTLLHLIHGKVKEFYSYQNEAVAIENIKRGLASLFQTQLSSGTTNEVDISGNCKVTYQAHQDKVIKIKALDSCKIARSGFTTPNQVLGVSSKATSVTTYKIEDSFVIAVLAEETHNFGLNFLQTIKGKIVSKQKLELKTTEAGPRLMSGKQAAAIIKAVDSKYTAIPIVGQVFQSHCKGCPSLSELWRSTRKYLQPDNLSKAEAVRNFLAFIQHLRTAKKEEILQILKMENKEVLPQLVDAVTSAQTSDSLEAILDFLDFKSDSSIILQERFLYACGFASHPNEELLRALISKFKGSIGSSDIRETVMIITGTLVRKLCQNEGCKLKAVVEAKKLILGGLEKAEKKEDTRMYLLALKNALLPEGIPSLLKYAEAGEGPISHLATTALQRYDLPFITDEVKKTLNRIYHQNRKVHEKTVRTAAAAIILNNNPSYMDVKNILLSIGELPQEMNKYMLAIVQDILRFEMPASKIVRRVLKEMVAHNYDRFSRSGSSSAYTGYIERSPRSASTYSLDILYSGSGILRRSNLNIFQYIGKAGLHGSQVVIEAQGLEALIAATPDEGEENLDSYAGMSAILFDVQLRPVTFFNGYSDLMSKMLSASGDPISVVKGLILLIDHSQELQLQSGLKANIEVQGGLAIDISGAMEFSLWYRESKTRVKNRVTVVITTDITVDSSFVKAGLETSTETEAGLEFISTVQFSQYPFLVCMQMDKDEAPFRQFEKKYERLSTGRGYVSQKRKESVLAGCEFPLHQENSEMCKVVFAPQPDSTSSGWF
# Sequence (P07237 18-508 partner, species assumed): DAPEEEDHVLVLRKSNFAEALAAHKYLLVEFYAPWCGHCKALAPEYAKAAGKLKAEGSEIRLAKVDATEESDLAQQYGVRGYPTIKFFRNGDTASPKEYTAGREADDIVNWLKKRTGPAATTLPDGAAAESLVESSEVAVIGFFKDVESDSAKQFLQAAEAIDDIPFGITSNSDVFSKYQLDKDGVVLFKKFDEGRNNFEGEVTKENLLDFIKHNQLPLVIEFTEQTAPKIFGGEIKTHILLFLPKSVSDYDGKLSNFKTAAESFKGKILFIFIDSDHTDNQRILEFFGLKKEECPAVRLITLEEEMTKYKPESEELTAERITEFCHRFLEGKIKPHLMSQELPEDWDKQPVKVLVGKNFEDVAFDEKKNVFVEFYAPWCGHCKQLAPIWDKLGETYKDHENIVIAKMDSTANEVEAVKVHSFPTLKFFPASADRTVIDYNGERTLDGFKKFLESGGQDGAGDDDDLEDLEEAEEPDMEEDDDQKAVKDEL
# Assay: MTP assay (triglyceride transfer from donor to acceptor vesicles)
# Assay type: biochemical
# Details: MTP activity, percent triglyceride transfer from donor to acceptor vesicles, 37° C.
# Description: MTP activity was measured using an assay similar to one described by J. R. Wetterau and D. B. Zilversmit in Chemistry and Physics of Lipids, 38, 205-222 (1985). To prepare the donor and acceptor vesicles, the appropriate lipids in chloroform were put into a glass test tube and dried under a stream of nitrogen. A buffer containing 15 mM Tris-HCl pH 7.5, 1 mM EDTA, 40 mM NaCl, 0.02% NaN3 (assay buffer) was added to the dried lipid. The mixture was vortexed briefly and the lipids were then allowed to hydrate for 20 minutes on ice. Vesicles were then prepared by bath sonication (Branson 2200) at room temperature for maximum 15 minutes. Butylated hydroxytoluene was included in all vesicle preparations at a concentration of 0.1%. The lipid transfer assay mixture contained donor vesicles (40 nmol phosphatidylcholine, 7.5 mol % of cardiolipin and 0.25 mol % glycerol tri [1-^14C]-oleate), acceptor vesicles (240 nmol phosphatidylcholine) and 5 mg BSA in a total volume of 675 μl in a 1.5 ml microcentrifuge tube. Test compounds were added dissolved in DMSO (0.13% final concentration). After 5 minutes of pre-incubation at 37° C., the reaction was started by the addition of MTP in 100 μl dialysis buffer. The reaction was stopped by the addition of 400 μl DEAE-52 cellulose pre-equilibrated in 15 mM Tris-HCl pH 7.5, 1 mM EDTA, 0.02% NaN3 (1:1, vol/vol). The mixture was agitated for 4 minutes and centrifuged for 2 minutes at maximum speed in an Eppendorf centrifuge (4° C.) to pellet the DEAE-52-bound donor vesicles. An aliquot of the supernatant containing the acceptor liposomes was counted and the [^14C]-counts were used to calculate the percent triglyceride transfer from donor to acceptor vesicles.
row,SMILES,IC50 [µM]
1,C[C@H](NC(=O)[C@@]1(c2ccccc2)CC[C@H](C(=O)N2CCC(NC(=O)c3cccn(C)c3=O)CC2)c2ccccc21)C(=O)O [Co. No. 183],> 10
2,C[C@@H](NC(=O)[C@@]1(c2ccccc2)CC[C@H](C(=O)N2CCC(NC(=O)c3cccn(C)c3=O)CC2)c2ccccc21)C(=O)O [Co. No. 184],> 10
3,CN(CC(=O)O)C(=O)[C@@]1(c2ccccc2)CC[C@H](C(=O)N2CCC(NC(=O)c3cccn(C)c3=O)CC2)c2ccccc21 [Co. No. 185],> 10
4,Cn1cccc(C(=O)NC2CCN(C(=O)[C@H]3CC[C@@](C(=O)NCCC(=O)O)(c4ccccc4)c4ccccc43)CC2)c1=O [Co. No. 186],> 10
5,CC(C)[C@H](NC(=O)[C@@]1(c2ccccc2)CC[C@H](C(=O)N2CCC(NC(=O)c3cccn(C)c3=O)CC2)c2ccccc21)C(=O)O [Co. No. 187],> 10
6,CC(C)[C@@H](NC(=O)[C@@]1(c2ccccc2)CC[C@H](C(=O)N2CCC(NC(=O)c3cccn(C)c3=O)CC2)c2ccccc21)C(=O)O [Co. No. 188],> 10
7,CC(C)C[C@H](NC(=O)[C@@]1(c2ccccc2)CC[C@H](C(=O)N2CCC(NC(=O)c3cccn(C)c3=O)CC2)c2ccccc21)C(=O)O [Co. No. 189],> 10
8,Cn1cccc(C(=O)NC2CCN(C(=O)[C@H]3CC[C@@](C(=O)NC(CCCCN)C(=O)O)(c4ccccc4)c4ccccc43)CC2)c1=O (stereo partly shown) [Co. No. 190],> 10
9,Cn1cccc(C(=O)NC2CCN(C(=O)[C@H]3CC[C@@](C(=O)N4CCC[C@@H]4C(=O)O)(c4ccccc4)c4ccccc43)CC2)c1=O [Co. No. 191],> 10
10,Cn1cccc(C(=O)NC2CCN(C(=O)[C@H]3CC[C@@](C(=O)N4C[C@H](O)C[C@H]4C(=O)O)(c4ccccc4)c4ccccc43)CC2)c1=O [Co. No. 192],> 10
11,Cn1cccc(C(=O)NC2CCN(C(=O)[C@H]3CC[C@@](C(=O)N[C@@H](C(=O)O)c4ccccc4)(c4ccccc4)c4ccccc43)CC2)c1=O [Co. No. 193],> 10
12,Cn1cccc(C(=O)NC2CCN(C(=O)[C@H]3CC[C@@](C(=O)N[C@H](C(=O)O)c4ccccc4)(c4ccccc4)c4ccccc43)CC2)c1=O [Co. No. 194],> 10
13,Cn1cccc(C(=O)NC2CCN(C(=O)[C@H]3CC[C@@](C(=O)N[C@@H](Cc4ccccc4)C(=O)O)(c4ccccc4)c4ccccc43)CC2)c1=O [Co. No. 195],> 10
14,Cn1cccc(C(=O)NC2CCN(C(=O)[C@H]3CC[C@@](C(=O)N[C@H](Cc4ccccc4)C(=O)O)(c4ccccc4)c4ccccc43)CC2)c1=O [Co. No. 196],> 10
15,Cn1cccc(C(=O)NC2CCN(C(=O)[C@H]3CC[C@@](C(=O)N[C@@H](Cc4ccc(O)cc4)C(=O)O)(c4ccccc4)c4ccccc43)CC2)c1=O [Co. No. 197],> 10
16,Cn1cccc(C(=O)NC2CCN(C(=O)[C@H]3CC[C@@](C(=O)N[C@@H](CC(N)=O)C(=O)O)(c4ccccc4)c4ccccc43)CC2)c1=O [Co. No. 198],> 10
17,CCOC(=O)[C@H](CCCCNC(=O)OC(C)C)NC(=O)[C@@]1(c2ccccc2)CC[C@H](C(=O)N2CCC(NC(=O)c3cccn(C)c3=O)CC2)c2ccccc21 [Co. No. 234],> 10

# Now from value to compound:
row,IC50 [µM],SMILES
1,0.00647,CCNC(=O)[C@]1(c2ccccc2)CC[C@@H](C(=O)N2CCC(NC(=O)c3ccccc3OC)CC2)c2ccccc21 (racemic) [Co. No. 7]
2,0.00192,CCOC(=O)[C@]1(c2ccccc2)CC[C@@H](C(=O)N2CCC(NC(=O)c3ccccc3OC)CC2)c2ccccc21 (racemic) [Co. No. 26]
3,0.0019,"CCOC(=O)[C@@]1(c2ccccc2)CC[C@H](C(=O)N2CCC(NC(=O)c3ccccc3)CC2)c2ccccc21 (single isomer, unassigned) [Co. No. 32]"
4,0.003,"CCNC(=O)[C@@]1(c2ccccc2)CC[C@H](C(=O)N2CCC(NC(=O)c3ccccc3OC)CC2)c2ccccc21 (single isomer, unassigned) [Co. No. 39]"
5,> 10,"COc1ccccc1C(=O)NC1CCN(C(=O)[C@@H]2CC[C@@](C(N)=O)(c3ccccc3)c3ccccc32)CC1 (single isomer, unassigned) [Co. No. 41]"
6,1.14,COC(=O)CCCNC(=O)[C@@]1(c2ccccc2)CC[C@H](C(=O)N2CCC(NC(=O)c3cccn(C)c3=O)CC2)c2ccccc21 [Co. No. 224]
7,0.228,CC(C)OC(=O)CCCCNC(=O)[C@@]1(c2ccccc2)CC[C@H](C(=O)N2CCC(NC(=O)c3cccn(C)c3=O)CC2)c2ccccc21 [Co. No. 227]
8,0.307,COC(=O)CCCCCNC(=O)[C@@]1(c2ccccc2)CC[C@H](C(=O)N2CCC(NC(=O)c3cccn(C)c3=O)CC2)c2ccccc21 [Co. No. 228]
9,0.17,Cn1cccc(C(=O)NC2CCN(C(=O)[C@H]3CC[C@@](C(=O)NCCCCCC(=O)OC(C)(C)C)(c4ccccc4)c4ccccc43)CC2)c1=O [Co. No. 230]
10,3.33,CCOC(=O)NCCCC[C@H](CC(=O)[C@@]1(c2ccccc2)CC[C@H](C(=O)N2CCC(NC(=O)c3cccn(C)c3=O)CC2)c2ccccc21)C(=O)OCC [Co. No. 232]
11,2.67,COC(=O)[C@H](CCCCNC(=O)[C@@]1(c2ccccc2)CC[C@H](C(=O)N2CCC(NC(=O)c3cccn(C)c3=O)CC2)c2ccccc21)NC(C)=O [Co. No. 236]
12,0.234,COC(=O)[C@@H](CCCCNC(=O)OC(C)(C)C)NC(=O)[C@@]1(c2ccccc2)CC[C@H](C(=O)N2CCC(NC(=O)c3cccn(C)c3=O)CC2)c2ccccc21 [Co. No. 237]
13,2.33,CCOC(=O)NCCCC[C@@H](NC(=O)[C@@]1(c2ccccc2)CC[C@H](C(=O)N2CCC(NC(=O)c3cccn(C)c3=O)CC2)c2ccccc21)C(=O)OC [Co. No. 238]
14,0.643,CCOC(=O)NCCCC[C@@H](NC(=O)[C@@]1(c2ccccc2)CC[C@H](C(=O)N2CCC(NC(=O)c3cccn(C)c3=O)CC2)c2ccccc21)C(=O)OCC [Co. No. 239]
15,0.286,COC(=O)[C@@H](CCCCNC(=O)OC(C)C)NC(=O)[C@@]1(c2ccccc2)CC[C@H](C(=O)N2CCC(NC(=O)c3cccn(C)c3=O)CC2)c2ccccc21 [Co. No. 240]
16,0.243,CCOC(=O)[C@@H](CCCCNC(=O)OC(C)C)NC(=O)[C@@]1(c2ccccc2)CC[C@H](C(=O)N2CCC(NC(=O)c3cccn(C)c3=O)CC2)c2ccccc21 [Co. No. 241]
17,2.36,CC(C)OC(=O)NCCCC[C@@H](NC(=O)[C@@]1(c2ccccc2)CC[C@H](C(=O)N2CCC(NC(=O)c3cccn(C)c3=O)CC2)c2ccccc21)C(=O)OC(C)C [Co. No. 242]
18,0.0631,CCOC(=O)[C@]1(c2ccccc2)CC[C@@H](C(=O)N2CCN(CC(=O)c3ccccc3OC)CC2)c2ccccc21 [Co. No. 259]
19,0.0145,CCOC(=O)[C@]1(c2ccccc2)CC[C@@H](C(=O)N2CCC(NC(=O)c3ccccc3N3CCN(C)CC3)CC2)c2ccccc21 [Co. No. 268]
20,0.00845,C=CCOC(=O)[C@@]1(c2ccccc2)CC[C@H](C(=O)N2CCC(NC(=O)c3ccccc3N3CCN(C)CC3)CC2)c2ccccc21 [Co. No. 269]
21,0.0141,CCOC(=O)[C@]1(c2ccccc2)CC[C@@H](C(=O)N2CCC(N(C)C(=O)c3ccccc3OC)CC2)c2ccccc21 [Co. No. 270]
22,0.00294,CCOC(=O)[C@]1(c2cccc(F)c2)CC[C@@H](C(=O)N2CCC(NC(=O)c3ccccc3OC)CC2)c2cc(F)ccc21 [Co. No. 271]
